Reference: ChEMBL document CHEMBL1130672, “Evaluation of a structure-based statine cyclic diamino amide encoded combinatorial library against plasmepsin II and cathepsin D” (Bioorg Med Chem Lett, 1998)
pIC50, pKi: −log10 of the molar value.

Key:
Cathepsin D = Cathepsin D (Homo sapiens, UniProt P07339); assay: Compound was tested for inhibitory activity against cathepsin D
Plasmepsin II = Plasmepsin II (Plasmodium falciparum, UniProt P46925); assay: Inhibitory activity against plasmepsin-2
Plasmodium falciparum = assay: Inhibitory concentration for Plasmodium falciparum culture; assay type: functional, organism-based

Plasmepsin II, sequence (P46925 whole entry): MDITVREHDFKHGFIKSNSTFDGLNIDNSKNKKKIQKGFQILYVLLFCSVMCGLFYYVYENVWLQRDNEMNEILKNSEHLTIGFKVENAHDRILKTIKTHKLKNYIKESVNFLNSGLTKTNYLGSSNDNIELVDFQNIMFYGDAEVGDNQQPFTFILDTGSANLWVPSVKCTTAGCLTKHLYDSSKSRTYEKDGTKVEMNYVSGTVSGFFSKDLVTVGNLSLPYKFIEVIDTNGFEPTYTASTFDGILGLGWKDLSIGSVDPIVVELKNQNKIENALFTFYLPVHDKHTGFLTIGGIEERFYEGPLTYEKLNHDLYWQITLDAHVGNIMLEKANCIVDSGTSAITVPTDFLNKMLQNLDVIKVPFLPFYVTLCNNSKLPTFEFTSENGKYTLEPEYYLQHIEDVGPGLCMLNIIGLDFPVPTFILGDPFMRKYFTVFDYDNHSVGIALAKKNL
Cathepsin D, sequence (P07339 65-162 limits assumed): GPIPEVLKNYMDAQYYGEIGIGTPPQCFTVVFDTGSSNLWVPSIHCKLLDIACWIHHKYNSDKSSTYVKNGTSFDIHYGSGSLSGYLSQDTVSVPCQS
Cathepsin D, sequence (P07339 169-412 limits assumed): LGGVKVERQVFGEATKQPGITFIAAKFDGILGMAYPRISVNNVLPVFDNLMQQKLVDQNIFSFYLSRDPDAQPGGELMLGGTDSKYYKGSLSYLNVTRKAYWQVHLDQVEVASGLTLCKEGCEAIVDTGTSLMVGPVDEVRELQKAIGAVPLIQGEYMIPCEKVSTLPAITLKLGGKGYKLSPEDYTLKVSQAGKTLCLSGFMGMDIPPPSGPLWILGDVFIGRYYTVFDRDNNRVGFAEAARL

| Compound | pKi (Cathepsin D) | pIC50 (Plasmepsin II) | pIC50 (Cathepsin D) | pIC50 (Plasmodium falciparum) | pKi (Plasmepsin II) |
| --- | --- | --- | --- | --- | --- |
| CCCCNC(=O)C[C@H](O)[C@H](Cc1ccccc1)NC(=O)CC1CN(Cc2cc(OC)c(OC)c(OC)c2)CCN1C(=O)c1ccc(OC(C)C)cc1 (some centres undefined) | 5.28 | ~4.40 |  |  |  |
| CCCCNC(=O)C[C@H](O)[C@H](Cc1ccccc1)NC(=O)CC1CN(Cc2ccc(-c3ccccc3)cc2)CCN1C(=O)CC(CN)c1ccc(Cl)cc1 (some centres undefined) |  |  | ~4.35 | 5.52 | 6.31 |
| CCCCNC(=O)C[C@H](O)[C@H](Cc1ccccc1)NC(=O)C1CN(C(=O)CCCCC(=O)OCC)CCN1C(=O)CCc1cc(OC)c(OC)c(OC)c1 (some centres undefined) | 5.96 | ~4.00 |  |  |  |
| CCCCNC(=O)C[C@H](O)[C@H](Cc1ccccc1)NC(=O)C1CN(CCOCCc2ccccc2)CCN1C(=O)CCc1cc(OC)c(OC)c(OC)c1 (some centres undefined) | 5.74 | ~4.19 |  |  |  |
